Several values for one entry are separate records, joined by “and”; a condition that tells them apart may be missing. Equal entries are not always repeated.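 Five compound concentrations were applied to cells in 96-well plates for 48 hours; endpoints were derived by simple linear interpolation of the resulting dose-response curve. At the GI50, growth is halved. TGI marks complete inhibition of growth.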
Legend:
Assay in all cases: inhibition of tumour cell growth, NCI panel, 48 h
ACHN renal = test system: ACHN renal
BT-549 breast = test system: BT-549 breast
DU-145 prostate = test system: DU-145 prostate
HCC-2998 colon = test system: HCC-2998 colon
MCF7 breast = test system: MCF7 breast
MDA-MB-435 = test system: MDA-MB-435
NCI-H226 lung = test system: NCI-H226 lung
OVCAR-3 ovarian = test system: OVCAR-3 ovarian
SK-OV-3 ovarian = test system: SK-OV-3 ovarian

Row | SMILES | TGI (ACHN renal) | TGI (BT-549 breast) | TGI (DU-145 prostate) | TGI (HCC-2998 colon) | TGI (MCF7 breast) [µM] | TGI (MDA-MB-435) | TGI (NCI-H226 lung) | TGI (OVCAR-3 ovarian) | TGI (SK-OV-3 ovarian) | GI50 (ACHN renal) | GI50 (DU-145 prostate) | GI50 (HCC-2998 colon) | GI50 (MCF7 breast) | GI50 (OVCAR-3 ovarian)
1 | O=C(c1cc(Cl)cc(Cl)c1)N(C(=S)OC12CC3CC(CC(C3)C1)C2)c1ccccc1 | > 100 µM | > 100 µM | > 100 µM | > 100 µM | > 100 | > 100 µM | > 100 µM | > 100 µM | > 100 µM |  |  |  |  | 
2 | CC(C)C(C/C=C1/CC(CO)(COC(=O)CC(C(C)C)C(C)C)OC1=O)C(C)C (configuration not stated) | 18.2 µM | 28.7 µM | 26.3 µM | 13.3 µM | 28.4 | 16.9 µM | 22.6 µM | 26.7 µM | 30.5 µM |  |  |  |  | 
3 | O=C(CN1CCN(C(=O)OCc2ccccc2)CCN(CC(=O)N2CCCCC2)CCN(C(=O)OCc2ccccc2)CC1)N1CCCCC1 | > 54 µM | > 50.5 µM | > 54.8 µM | 25.2 µM | 44.6 | 31.2 µM | 36.6 µM | 22.8 µM | > 52.7 µM |  |  |  |  | 
4 | N#CCC(=O)Nn1c(CC#N)nnc1Cc1ccccc1 | > 100 µM | > 100 µM | > 100 µM | > 100 µM | > 100 | > 100 µM | > 100 µM | > 100 µM |  |  |  |  |  | 
5 | COc1cc([C@@H]2c3cc4c(cc3[C@@H](NCCNCCO)[C@H]3COC(=O)[C@H]23)OCO4)cc(OC)c1O | 8.68 µM and 21.2 µM | 7.03 µM and 5.49 µM | 9.83 µM and > 33.9 µM | 32.2 µM and 12.1 µM | > 36.7 | 35 µM and 31.6 µM | 4.97 µM and 4.5 µM | > 66.9 µM and 11.1 µM | 12.4 µM and 8.25 µM | 0.856 µM and 2.43 µM | 1.82 µM and 3.88 µM | 3.39 µM and 1.58 µM | 0.183 µM and 0.0876 µM | 7.28 µM and 2.31 µM
6 | COC(=O)C(CCC1C=CCC1)N=Cc1ccccc1 (configuration not stated) | > 100 µM | > 100 µM | > 100 µM | > 100 µM | > 100 | > 100 µM | > 100 µM | > 100 µM | > 100 µM |  |  |  |  | 
7 | NC1CC(=O)c2csc(Br)c21 (configuration not stated) | 32.2 µM | 26.5 µM | > 52.1 µM | 34.6 µM | 68 | 32.9 µM | 69.2 µM | 30.7 µM | > 100 µM |  |  |  |  | 
8 | CC(=O)O[C@H]1C[C@]2(C)C(CCC3O[C@@]32C)[C@@]2(CC(c3ccoc3)OC2O)[C@@H]1C (some centres not stated) | > 100 µM | > 100 µM | > 100 µM | > 100 µM | > 100 | > 100 µM | > 100 µM | > 100 µM | > 100 µM |  |  |  |  | 
9 | COC(=O)NCCc1[nH]nc2c1C(=O)C=C(Nc1ccccc1)C2=O | > 100 µM | > 100 µM | > 100 µM | > 100 µM | 31.2 | 31.1 µM |  | > 100 µM | > 100 µM |  |  |  |  | 
10 | CC(=O)Oc1ccc2c(c1)c1c(=O)oc(N(C)C)nc1n2Cc1ccccc1 | > 100 µM | > 100 µM | > 100 µM | > 100 µM | > 100 | > 100 µM | > 100 µM | > 100 µM | > 100 µM |  |  |  |  | 
11 | O=C1NC2(CCCCC2)N=C2C(Cl)CCCC12Cl (configuration not stated) | > 100 µM | > 100 µM | > 100 µM | > 100 µM | > 100 | > 100 µM | > 100 µM | > 100 µM | > 100 µM |  |  |  |  | 

From PubChem BioAssay (NCI)
